Data from article PMC2248166, “Quantitative peptide binding motifs for 19 human and mouse MHC class I molecules derived using positional scanning combinatorial peptide libraries” (Immunome Research, 2008).
pIC50: −log10 of the molar value. Where a SMILES comes first, the peptide text is derived from it.

The molecules below were run against HLA B*1503 (Homo sapiens, UniProt P01889, A329T/A93T/A95T/C349S/D201E/D98Y/E187L/E204Q/K202T/N87E/Q94N/R155S/R180L/S121R/S35A/V306I/V36M/Y140S/Y91S) (assay: biochemical).
Assay type: binding

Compared with `CC[C@H](C)[C@H](NC(=O)[C@H](CCSC)NC(=O)[C@H](C)NC(=O)[C@H](C)NC(=O)[C@@H](N)Cc1ccccc1)C(=O)N[C@H](C(=O)N[C@@H](CCCNC(=N)N)C(=O)N[C@@H](CO)C(=O)N[C@@H](Cc1ccccc1)C(=O)O)[C@@H](C)CC` [3102.1048] (H-FAAMIIRSF-OH), `CC[C@H](C)[C@H](NC(=O)[C@H](CC(N)=O)NC(=O)[C@@H](NC(=O)[C@H](CCCCN)NC(=O)[C@@H](N)Cc1ccccc1)[C@@H](C)CC)C(=O)N[C@@H](Cc1ccccc1)C(=O)N[C@@H](CCSC)C(=O)N[C@@H](C)C(=O)N[C@@H](Cc1ccccc1)C(=O)O` [3102.1074] (H-FKINIFMAF-OH) is 0.89 log units lower in pIC50: 8.89 for the first, 8.00 for the second.

First: CSCC[C@H](NC(=O)[C@H](CC(C)C)NC(=O)[C@H](CO)NC(=O)[C@H](CC(N)=O)NC(=O)[C@H](CC(N)=O)NC(=O)[C@H](CC(C)C)NC(=O)[C@@H](N)CS)C(=O)N[C@@H](CO)C(=O)N[C@@H](Cc1ccccc1)C(=O)O [3102.1050] (H-CLNNSLMSF-OH)
Second: CC(C)C[C@H](NC(=O)[C@H](CC(N)=O)NC(=O)[C@H](CC(C)C)NC(=O)[C@H](CCCNC(=N)N)NC(=O)[C@H](CCCNC(=N)N)NC(=O)[C@H](CO)NC(=O)[C@H](CCCCN)NC(=O)[C@@H](N)CO)C(=O)N[C@@H](Cc1ccccc1)C(=O)O [3102.1061] (H-SKSRRLNLF-OH)
The pIC50 of the first is 0.49 log units higher: 9.11 for the first, 8.62 for the second.

Going from `CC(C)C[C@H](NC(=O)[C@H](CO)NC(=O)[C@H](CO)NC(=O)[C@@H](NC(=O)[C@H](CCC(=O)O)NC(=O)[C@@H](NC(=O)[C@H](CO)NC(=O)[C@H](CCCCN)NC(=O)[C@@H](N)CC(C)C)C(C)C)[C@@H](C)O)C(=O)O` [3102.1056] (H-LKSVETSSL-OH) to `CC(C)[C@H](NC(=O)[C@H](CC(=O)O)NC(=O)[C@H](CCC(=O)O)NC(=O)[C@@H](NC(=O)[C@H](CO)NC(=O)[C@@H](N)CCCCN)C(C)C)C(=O)N[C@@H](CO)C(=O)N[C@@H](C)C(=O)N[C@@H](Cc1ccccc1)C(=O)O` [3102.1062] (H-KSVEDVSAF-OH), the pIC50 falls from 8.42 to 7.85 (0.57 log units).

First: CC(C)C[C@H](NC(=O)[C@@H](N)CC(N)=O)C(=O)N[C@@H](Cc1ccc(O)cc1)C(=O)N[C@@H](Cc1ccccc1)C(=O)N[C@@H](CS)C(=O)N[C@H](C(=O)N[C@@H](CCCCN)C(=O)N[C@@H](CO)C(=O)N[C@@H](Cc1ccccc1)C(=O)O)[C@@H](C)O [3102.1057] (H-NLYFCTKSF-OH)
Second: CC[C@H](C)[C@H](NC(=O)[C@@H](NC(=O)[C@@H](NC(=O)[C@H](CCCNC(=N)N)NC(=O)[C@H](CC(N)=O)NC(=O)[C@H](Cc1ccccc1)NC(=O)[C@H](CO)NC(=O)[C@@H](N)C(C)C)C(C)C)C(C)C)C(=O)N[C@@H](Cc1ccccc1)C(=O)O [3102.1059] (H-VSFNRVVIF-OH)
The pIC50 of the first is 0.59 log units lower: 8.37 for the first, 8.96 for the second.

`CC[C@H](C)[C@H](N)C(=O)N[C@@H](CCSC)C(=O)N[C@@H](CO)C(=O)N[C@@H](CC(C)C)C(=O)N[C@@H](Cc1ccccc1)C(=O)N[C@@H](CO)C(=O)N[C@H](C(=O)N[C@@H](CO)C(=O)N[C@@H](C)C(=O)O)[C@@H](C)O` [3102.1063] (H-IMSLFSTSA-OH) and `CC[C@H](C)[C@H](N)C(=O)N[C@@H](CO)C(=O)N[C@@H](CO)C(=O)N[C@@H](CCCNC(=N)N)C(=O)N[C@@H](CCC(=O)O)C(=O)N[C@@H](CO)C(=O)N[C@H](C(=O)N[C@@H](CO)C(=O)N[C@@H](Cc1ccccc1)C(=O)O)C(C)C` [3102.1068] (H-ISSRESVSF-OH) are within 0.2 log units of each other in pIC50: 8.11 for the first, 7.92 for the second.

First: CC[C@H](C)[C@H](NC(=O)[C@@H]1CCCN1C(=O)[C@H](CO)NC(=O)CNC(=O)[C@H](CC(=O)O)NC(=O)[C@H](CC(C)C)NC(=O)[C@@H](NC(=O)[C@H](CCCCN)NC(=O)[C@@H](N)Cc1ccccc1)C(C)C)C(=O)O [3102.1070] (H-FKVLDGSPI-OH)
Second: CC[C@H](C)[C@H](NC(=O)[C@H](CC(N)=O)NC(=O)[C@H](Cc1c[nH]cn1)NC(=O)[C@H](CCC(N)=O)NC(=O)[C@@H](N)C(C)C)C(=O)N[C@@H](CCCCN)C(=O)N[C@@H](Cc1c[nH]cn1)C(=O)N[C@@H](CO)C(=O)N[C@@H](Cc1ccccc1)C(=O)O [3102.1075] (H-VQHNIKHSF-OH)
The pIC50 of the first is 0.61 log units lower: 9.09 for the first, 9.70 for the second.
